Legend:
[1] = system: Human bladder HT-1376 cells; assay: Caspase-3 activity in cell lysates of 48 h cultures (apoptosis); assay type: cell-based; conditions: ANOVA, Newman-Keuls, p<0.05
Procedure: The reduction in cell proliferation seen with MIF inhibitor treatment could possibly be due to induction of apoptosis. To assess this we determined caspase-3 activity within the cell lysates of 48 h cultures.

HT-1376 cells = assay: Cytokine protein array analysis of secreted cytokines; assay type: cell-based, human
Procedure: MIF plays a key role in pro-inflammatory gene and cytokine expression. Therefore changes in MIF expression or protein content are likely to affect the expression of additional cytokines. This may in fact be a key in the utility of MIF inhibition in treating bladder adenocarcinoma. To test this, cytokine expression changes induced by MIF inhibition were also evaluated by cytokine protein array analysis (Ray Biotech, Norcross, Ga.), which detected secreted cytokines. […] A summary of the cytokine secretion changes (2 fold or greater) seen with MIF inhibition is described in Table 1.
HT-1376 cells express and secrete 65 of the 79 cytokines present on the array. The three types of MIF inhibition all affected the cytokine secretion patterns of these cells. In table 1, blank cells indicate no difference between the amounts of cytokine secreted by the treated and control cells. Arrows indicate an increase or decrease in the fold amount of cytokine secreted. […] Healon decreased the secreted amount of 27 cytokines.

[2] = system: HT-1376 bladder epithelial cells; assay: MIF protein synthesis and secretion (cellular and secreted MIF); assay type: cell-based, human; conditions: HT-1376 cells, in vitro treatment
Procedure: In order to establish the relevance of MIF to urogenital disease in humans we sought to determine if human bladder epithelial cells secrete MIF. Human bladder HT-1376 cells (ATCC, Manasas, Va.) were cultured for 48 hours and the culture medium was assayed for MIF using ELISA. In addition, intracellular content of MIF was assayed from cell lysates. These human bladder adenocarcinoma cells synthesize MIF ([…]). The average MIF concentration secreted into the medium by these cells was 15 ng/ml. Expression of MIF was confirmed by RT-PCR analysis. Thus establishing MIF secretion by human bladder epithelia.
Next, we determined if addition of MIF inhibitors in the culture media changed the synthesis or release of MIF by these cells.
A human MIF-specific “sandwich” ELISA technique was developed, based on the capture of MIF by immobilized monoclonal antibody (MAB289, R&D Systems) followed by detection with goat polyclonal anti-MIF affinity purified IgG (BAF289, R&D Systems). This assay was successfully used previously to detect MIF levels in serum and urine. This is another application of this protocol in which MIF levels are detected in urine for bladder cancer diagnosis and prognosis. Intravesical MIF inhibitors are a potential new treatment for bladder cancer. […]

[3] = fold vs control, ↓ decrease ↑ increase, Not detected = no longer detectable after treatment

In the case of hyaluronan [Healon], the caspase-3 activity [1] is reported as “no significant increase”, the “number of secreted cytokines whose amount was decreased” value (HT-1376 cells; 65 of the 79 cytokines on the array expressed) is reported as 27 and the “Secreted Cytokines: Ang” value (HT-1376 cells; [3]) is reported as “Not detected”. The “Secreted Cytokines: Ckβ 8-1” value (HT-1376 cells; [3]) was “Not detected”, the “Secreted Cytokines: Eotaxin” value (HT-1376 cells; [3]) was “Not detected” and the “Secreted Cytokines: Eotaxin-3” value (HT-1376 cells; [3]) was “Not detected”. The “Secreted Cytokines: IGF-1” value (HT-1376 cells; [3]) was “Not detected”, the “Secreted Cytokines: IL-1β” value (HT-1376 cells; [3]) was “no affect” and the “Secreted Cytokines: MIF” value (HT-1376 cells; [3]) was “Not detected”. The “Secreted Cytokines: MIP-3α” value (HT-1376 cells; [3]) was “Not detected”, the “Secreted Cytokines: TNF-α” value (HT-1376 cells; [3]) was “Not detected” and the “decrease in secreted (extracellular) MIF” value [2] was 2.8 fold. For the same substance, the “increase in cellular MIF content” value [2] was 2 fold.
